Columns and labels:
Format in all cases: in vivo
Details in all cases: 250 g/h, evaluated after 13 days
Avena fatua (AVEFA) [1] = assay: Pre-emergence herbicidal glasshouse test, percentage damage
Description: (§1) Seeds of a variety of test species are sown in standard soil in pots (Lolium perenne (LOLPE), Setaria faberi (SETFA), Alopecurus myosuroides (ALOMY), Echinochloa crus-galli (ECHCG), Avena fatua (AVEFA)). After cultivation for one day (pre-emergence) or after 8 days cultivation (post-emergence) under controlled conditions in a glasshouse (at 24/16° C., day/night; 14 hours light; 65% humidity), the plants are sprayed with an aqueous spray solution derived from the formulation of the technical active ingredient in acetone/water (50:50) solution containing 0.5% Tween 20 (polyoxyethelyene sorbitan monolaurate, CAS RN 9005-64-5). Compounds are applied at […]. The test plants are then grown in a glasshouse under controlled conditions in a glasshouse (at 24/16° C., day/night; 14 hours light; 65% humidity) and watered twice daily. After 13 days for pre and post-emergence, the test is evaluated for the percentage damage caused to the plant. The biological activities are shown in the following table on a five point scale (5=80-100%; 4=60-79%; 3=40-59%; 2=20-39%; 1=0-19%).

[2] = tested on: Echinochloa crus-galli (ECHCG); assay: as above
Description: as §1

Lolium perenne (LOLPE) [3] = assay: as above
Description: as §1

Setaria faberi (SETFA) [4] = assay: as above
Description: as §1

Setaria faberi (SETFA) [5] = assay: Post-emergence herbicidal glasshouse test, percentage damage
Description: as §1
Using procedures outlines above, wheat and barley crop plants and a weed species (SETFA) are treated post-emergence with compound A11 of the present invention or comparator compound C1 (Compound A-38 from WO2014/096289) at the application rates indicated. The compounds were also applied to wheat in conjunction with the safener compound cloquintocet-mexyl (CQC) at 50 g/ha.

Avena fatua (AVEFA) [6] = assay: as above
Description: as §1

[7] = tested on: Echinochloa crus-galli (ECHCG); assay: as above
Description: as §1

Lolium perenne (LOLPE) [8] = assay: as above
Description: as §1

Compound	AVEFA PRE percentage damage (five point scale) (Avena fatua (AVEFA) [1])	ECHCG PRE percentage damage (five point scale) [2]	LOLPE PRE percentage damage (five point scale) (Lolium perenne (LOLPE) [3])	SETFA PRE percentage damage (five point scale) (Setaria faberi (SETFA) [4])	SETFA POST percentage damage (five point scale) (Setaria faberi (SETFA) [5])	AVEFA POST percentage damage (five point scale) (Avena fatua (AVEFA) [6])	ECHCG POST percentage damage (five point scale) [7]	LOLPE POST percentage damage (five point scale) (Lolium perenne (LOLPE) [8])
CC#Cc1cc(C)c(C2C(=O)CC3(CCN(C(=O)NC(=O)CC)CC3)CC2=O)c(C)c1 [Compound A108]	5 (5=80-100%)	5 (5=80-100%)	5 (5=80-100%)	5 (5=80-100%)	5 (5=80-100%)	5 (5=80-100%)	5 (5=80-100%)	5 (5=80-100%)
CC#Cc1cc(C)c(C2C(=O)CC3(CCN(C(=O)C4CCCOC4)CC3)CC2=O)c(C)c1 (stereo not shown) [Compound A128]	3 (3=40-59%)	5 (5=80-100%)	5 (5=80-100%)	5 (5=80-100%)	4 (4=60-79%)	5 (5=80-100%)	5 (5=80-100%)	5 (5=80-100%)
CC#Cc1cc(C)c(C2C(=O)CC3(CCN(C(=O)c4cnco4)CC3)CC2=O)c(C)c1 [Compound A116]	5 (5=80-100%)	5 (5=80-100%)	5 (5=80-100%)	5 (5=80-100%)	5 (5=80-100%)	5 (5=80-100%)	5 (5=80-100%)	5 (5=80-100%)
CC#Cc1cc(C)c(C2C(=O)CC3(CCN(C(=O)C4COCCO4)CC3)CC2=O)c(C)c1 (stereo not shown) [Compound A133]	5 (5=80-100%)	5 (5=80-100%)	5 (5=80-100%)	5 (5=80-100%)	5 (5=80-100%)	5 (5=80-100%)	5 (5=80-100%)	5 (5=80-100%)
CC#Cc1cc(C)c(C2C(=O)CC3(CCN(C(=O)c4ccc(OC)cn4)CC3)CC2=O)c(C)c1 [Compound A121]	4 (4=60-79%)	5 (5=80-100%)	5 (5=80-100%)	5 (5=80-100%)	5 (5=80-100%)	5 (5=80-100%)	5 (5=80-100%)	5 (5=80-100%)
CC#Cc1cc(C)c(C2C(=O)CC3(CCN(C(=O)c4cocn4)CC3)CC2=O)c(C)c1 [Compound A123]	5 (5=80-100%)	5 (5=80-100%)	5 (5=80-100%)	5 (5=80-100%)	5 (5=80-100%)	5 (5=80-100%)	5 (5=80-100%)	5 (5=80-100%)
CC#Cc1cc(C)c(C2C(=O)CC3(CCN(C(=O)c4cncs4)CC3)CC2=O)c(C)c1 [Compound A118]	5 (5=80-100%)	5 (5=80-100%)	5 (5=80-100%)	5 (5=80-100%)	5 (5=80-100%)	5 (5=80-100%)	5 (5=80-100%)	5 (5=80-100%)
CC#Cc1cc(C)c(C2C(=O)CC3(CCN(S(=O)(=O)c4cnccn4)CC3)CC2=O)c(C)c1 [Compound A107]	4 (4=60-79%)	3 (3=40-59%)	5 (5=80-100%)	4 (4=60-79%)	5 (5=80-100%)	5 (5=80-100%)	5 (5=80-100%)	5 (5=80-100%)

— US12043599B2, “Herbicidal compounds” (SYNGENTA PARTICIPATIONS AG, priority 2018, dated 2024)
